Test results published in PMC8657793, “Synthesis, In Vitro and In Silico Anticancer Activity of New 4-Methylbenzamide Derivatives Containing 2,6-Substituted Purines as Potential Protein Kinases Inhibitors” (International Journal of Molecular Sciences, 2021).

Experiments:
[1] = test system: RPMI 1788 (B lymphocyte, normal human lymphoblastoid cells); test: MTT assay on normal cells RPMI 1788; assay type: cell-based
Procedure: (§1) To determine the selectivity of the synthesized compounds 7–16 toward various cancer cells and normal human cells, the anti-proliferative activity against K562 (chronic myelogenous leukemia), HL-60 (promyelocytic leukemia), MCF-7 (breast adenocarcinoma), HeLa (cervix carcinoma), HepG2 (human liver cancer), A549 (lung carcinoma), OKP-GS (renal cell carcinoma), and normal cells RPMI 1788 (B lymphocyte, the human cell line) was investigated.
(§2) Each in vitro experiment was performed at least in triplicate and the standard deviation of absorbance was less than 10% of the mean. For the in vitro assays, a stock solution (1% DMSO in the appropriate buffer with the tested compound diluted under sonication) was prepared from which several dilutions were made with the appropriate buffer.
Human cell lines were obtained from the Institute of Cytology, Russian Academy of Sciences. The cell lines studied were maintained in RPMI 1640 medium (AppliChem, Darmstadt, Germany) supplemented with 20% (HL-60, RPMI 1788) fetal calf serum (HyClone, Cramlington, UK), in DMEM (A 549) and Eagle’s MEM (AppliChem) (MCF7, HeLa) with 10% fetal calf serum (HyClone). Cells were cultivated at 37 °C in a humidified atmosphere of 5% CO2. Cellular sensitivities to synthesized compounds and standards were measured with the MTT assay. Cells were plated in triplicate in 96-well plates (10^5 cells/well for suspended cell cultures and 5 × 10^3 cells/well for monolayer cultures); on the same day (suspended cell cultures) or on the following day (monolayer cultures), compounds were added at the appropriate dilutions. […] The reference drugs were imatinib, sorafenib and nilotinib. Plates were incubated under standard conditions for 48 h. Thereafter, 10 μL MTT (Sigma) in phosphate-buffered saline (5 mg/mL) was added. The plates were incubated for an additional 4 h and 150 μL dimethylsulphoxide (DMSO) was added to dissolve the formazan crystals. The optical density was read on a HALO MPR-95 Microplate Reader (Dynamica Scientific Ltd., Melbourne, Victoria, Australia) at 570 nm. The antiproliferative effects were taken as degrees of inhibition of tumor cells (%). The average of three parallel measurements was calculated for each concentration of test compound. The degree of cell growth suppression was plotted as a function of the logarithm of the concentration. The half maximal inhibitory concentration (IC50) was determined graphically for active compounds.

PDGFRα = molecular target: T1, PDGFRα (Homo sapiens, UniProt P16234); test: Kinase Selectivity Profiling System TK-1 / ADP-Glo, PDGFRα; assay type: biochemical
T1 construct: purchased Promega
T1 sequence (P16234 24-1089): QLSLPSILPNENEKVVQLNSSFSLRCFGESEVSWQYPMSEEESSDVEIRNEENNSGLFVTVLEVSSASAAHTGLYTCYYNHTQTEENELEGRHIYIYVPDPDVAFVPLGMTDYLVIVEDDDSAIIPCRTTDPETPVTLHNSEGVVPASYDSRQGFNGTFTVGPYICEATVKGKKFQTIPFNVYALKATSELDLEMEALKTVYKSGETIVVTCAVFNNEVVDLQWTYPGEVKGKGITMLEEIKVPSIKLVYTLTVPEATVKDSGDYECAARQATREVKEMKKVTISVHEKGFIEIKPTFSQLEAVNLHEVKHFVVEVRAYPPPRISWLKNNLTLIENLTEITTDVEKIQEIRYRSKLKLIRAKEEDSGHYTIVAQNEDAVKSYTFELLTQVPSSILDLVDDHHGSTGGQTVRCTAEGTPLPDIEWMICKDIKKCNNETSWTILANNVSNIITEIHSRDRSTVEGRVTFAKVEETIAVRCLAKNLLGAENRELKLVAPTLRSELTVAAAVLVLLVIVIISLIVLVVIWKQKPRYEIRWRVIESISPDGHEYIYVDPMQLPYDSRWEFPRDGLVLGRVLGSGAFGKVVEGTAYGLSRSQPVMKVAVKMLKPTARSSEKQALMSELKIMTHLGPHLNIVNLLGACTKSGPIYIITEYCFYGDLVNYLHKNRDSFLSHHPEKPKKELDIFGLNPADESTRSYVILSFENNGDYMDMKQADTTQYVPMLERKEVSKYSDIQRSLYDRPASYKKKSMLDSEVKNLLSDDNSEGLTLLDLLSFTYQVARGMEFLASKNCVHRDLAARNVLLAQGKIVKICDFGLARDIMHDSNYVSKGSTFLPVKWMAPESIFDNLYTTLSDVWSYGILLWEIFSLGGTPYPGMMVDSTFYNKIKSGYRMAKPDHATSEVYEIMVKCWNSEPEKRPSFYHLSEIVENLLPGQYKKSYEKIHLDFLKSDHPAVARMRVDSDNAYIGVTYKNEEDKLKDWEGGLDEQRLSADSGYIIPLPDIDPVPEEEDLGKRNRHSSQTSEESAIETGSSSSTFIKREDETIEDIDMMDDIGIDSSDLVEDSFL
Excerpt: Considering the presence of a purine ring in the compounds under study, type 1 binding to protein kinases could be expected. We investigated the kinase selectivity of targeted compounds 7–16 against eight receptor tyrosine kinases including EGFR, HER2 and HER4 (epidermal growth factor receptors), IGF1R (insulin-like growth factor 1 receptor), InsR (insulin receptor), KDR (vascular endothelial growth factor receptor 2—VEGFR-2), and PDGFRα and PDGFRβ (platelet-derived growth factor receptors). The assay was performed using the Kinase Selectivity Profiling System TK-1 (Promega, Madison, WI, USA) and ADP-Glo™ Kinase assay kit (Promega, Madison, WI, USA). Kinase activity was measured by quantifying the […] following a kinase reaction. Enzymatic activity inhibition percentage caused by studied compounds was evaluated at the single concentration of 1 μM.
The Abl1 inhibitory activity assay was performed using Abl1 Kinase Enzyme System (Promega, Madison, WI, USA) and ADP-Glo™ Kinase assay kit (Promega, Madison, WI, USA) according to the Technical Manual. The general procedure was as follows: kinase (2.5 ng/reaction) was incubated with substrate (1 μg), compound (0.5 and 10µM) and ATP (50 μM) in a commercial buffer solution with a reaction volume of 5 μL. In every experiment, no-enzyme and no-compound control reactions were included to represent background luminescence (0% activity) and uninhibited kinase activity (100% activity), respectively. The assay 384-well plate was incubated at room temperature for 1 h. Afterwards, 5μL of ADP-Glo reagent was added into each well to stop the reaction and consume the […] within 40 min. At the end, 10 μL of kinase detection reagent was added into the well and incubated for 30 min to produce a luminescence signal. Kinase activity assays were performed in triplicate at each inhibitor concentration. The luminescence was measured with the help of a Tecan Infinite M200 Plate Reader. The luminescence data were analyzed using the computer software, Magellan™. Percent kinase activity (KA) was calculated by subtracting the average no-enzyme control luminescence values from all kinase-containing reactions with or without compound, then converting these net luminescence values to percent activity based on the no-compound control reactions representing 100% kinase activity. Inhibition (I, %) was calculated as 100%-KA.
The single-dose screening of kinase selectivity was performed using Kinase Selectivity Profiling System TK-1 (Promega, Madison, WI, USA) and ADP-Glo™ Kinase assay kit (Promega, Madison, WI, USA) according to Technical Manual. Kinase Selectivity Profiling System TK-1 includes a set of kinases from the tyrosine kinase family (EGFR, HER2, HER4, IGF1R, InsR, KDR, PDGFα, PDGFβ) in 8-tube strip format. The general procedure was as follow: kinase working stock (2 µL/reaction) was incubated with ATP/substrate working stock (1 µL) and compound (1 µM) in a commercial buffer solution with a reaction volume of 5 μL. The reaction conditions and inhibition (%) calculation were the same as in Section 3.3.1. Kinase activity assays were performed in duplicate at each inhibitor.

[2] = test system: MCF-7 (breast adenocarcinoma); test: MTT anti-proliferative assay, MCF-7; assay type: cell-based; conditions: Homo sapiens, MCF7, 48 h
Procedure: as §1, §2
Human cell lines were obtained from the Institute of Cytology, Russian Academy of Sciences. The cell lines studied were maintained in RPMI 1640 medium (AppliChem, Darmstadt, Germany) supplemented with 20% (HL-60, RPMI 1788) fetal calf serum (HyClone, Cramlington, UK), in DMEM (A 549) and Eagle’s MEM (AppliChem) (MCF7, HeLa) with 10% fetal calf serum (HyClone). Cells were cultivated at 37 °C in a humidified atmosphere of 5% CO2. Cellular sensitivities to synthesized compounds and standards were measured with the MTT assay. Cells were plated in triplicate in 96-well plates (10^5 cells/well for suspended cell cultures and 5 × 10^3 cells/well for monolayer cultures); on the same day (suspended cell cultures) or on the following day (monolayer cultures), compounds were added at the appropriate dilutions. Anti-proliferative activity was studied at concentrations 0.1–50.0 µM. The reference drugs were imatinib, sorafenib and nilotinib. Plates were incubated under standard conditions for 48 h. Thereafter, 10 μL MTT (Sigma) in phosphate-buffered saline (5 mg/mL) was added. The plates were incubated for an additional 4 h and 150 μL dimethylsulphoxide (DMSO) was added to dissolve the formazan crystals. The optical density was read on a HALO MPR-95 Microplate Reader (Dynamica Scientific Ltd., Melbourne, Victoria, Australia) at 570 nm. The antiproliferative effects were taken as degrees of inhibition of tumor cells (%). The average of three parallel measurements was calculated for each concentration of test compound. The degree of cell growth suppression was plotted as a function of the logarithm of the concentration. The half maximal inhibitory concentration (IC50) was determined graphically for active compounds.

## Nc1nc(Cl)nc2c1ncn2Cc1ccc(C(=O)Nc2cccc(C(F)(F)F)c2)cc1 [Compound 15, 4-((6-Amino-2-chloro-9H-purin-9-yl)methyl)-N-(3-(trifluoromethyl)phenyl)benzamide]
[1]
  inhibition at 100 µM: 93.5%
PDGFRα
  inhibition at 1 µM: 16%
[2]
  IC50: 76.8 ± 3.25 µM

## COc1nc(Cl)nc2c1ncn2Cc1ccc(C(=O)Nc2cccc(C(F)(F)F)c2)cc1 [Compound 13, 4-((2-Chloro-6-methoxy-9H-purin-9-yl)methyl)-N-(3-(trifluoromethyl)phenyl)benzamide]
[1]
  inhibition at 100 µM: 100%
PDGFRα
  inhibition at 1 µM: 10%
[2]
  IC50: 14.2 ± 2.71 µM

## Cc1cn(-c2cc(NC(=O)c3ccc(Cn4cnc5c(Cl)nc(Cl)nc54)cc3)cc(C(F)(F)F)c2)cn1 [Compound 10, 4-((2,6-Dichloro-9H-purin-9-yl)methyl)-N-(3-(4-methyl-1H-imidazol-1-yl)-5-(trifluoromethyl)-phenyl)benzamide]
[1]
  inhibition at 100 µM: 98.5%
PDGFRα
  inhibition at 1 µM: 37%
[2]
  IC50: 8.1 ± 1.98 µM

## O=C(Nc1cccc(C(F)(F)F)c1)c1ccc(Cn2cnc3c(Cl)nc(Cl)nc32)cc1 [Compound 7, 4-((2,6-Dichloro-9H-purin-9-yl)methyl)-N-(3-(trifluoromethyl)phenyl)benzamide]
[1]
  inhibition at 100 µM: 98.9%
PDGFRα
  inhibition at 1 µM: 40%
[2]
  IC50: 12.3 ± 4.07 µM

## CNC(=O)c1cc(Oc2ccc(NC(=O)Nc3ccc(Cl)c(C(F)(F)F)c3)cc2)ccn1 [Sorafenib, sorafenib, reference compound]
[1]
  inhibition at 100 µM: 100%
PDGFRα
  inhibition at 1 µM: 98%
[2]
  IC50: 13.7 ± 3.08 µM

## COc1nc(Cl)nc2c1ncn2Cc1ccc(C(=O)Nc2cc(-n3cnc(C)c3)cc(C(F)(F)F)c2)cc1 [Compound 14, 4-((2-Chloro-6-methoxy-9H-purin-9-yl)methyl)-N-(3-(4-methyl-1H-imidazol-1-yl)-5-(trifluoromethyl)phenyl)benzamide]
[1]
  inhibition at 100 µM: 99.1%
PDGFRα
  inhibition at 1 µM: 16%
[2]
  IC50: 67.4 ± 3.29 µM
